{"source": "paper doi:10.1101/2023.10.01.560353v1", "about": "(bioRxiv, 2023)", "test_system": "11 clinically relevant bacterial pathogens", "test": "MIC over the panel of pathogens", "assay_type": "cell-based", "conditions": "Table S17; lowest MIC over the strains tested", "note": "Peptide text beside a SMILES is read from it.", "data": [{"smiles": "CC[C@H](C)[C@H](NC(=O)[C@H](CCCCN)NC(=O)[C@H](CC(C)C)NC(=O)[C@H](CCC(N)=O)NC(=O)[C@H](Cc1ccccc1)NC(=O)[C@@H](NC(=O)[C@@H](NC(=O)[C@H](Cc1ccccc1)NC(=O)[C@H](CC(C)C)NC(=O)[C@@H](NC(=O)[C@@H](N)CC(C)C)[C@@H](C)O)[C@@H](C)CC)[C@@H](C)CC)C(=O)N[C@@H](CO)C(=O)N[C@@H](CCCCN)C(=O)N[C@@H](CC(C)C)C(=O)O", "note": "[Paleopropin-1] (H-LTLFIIFQLKISKL-OH)", "values": [{"measurement": "MIC (lowest MIC value obtained in the antimicrobial activity assays)", "result": 32000, "unit": "mM"}]}, {"smiles": "CC[C@H](C)[C@H](NC(=O)[C@H](Cc1ccccc1)NC(=O)[C@H](CC(N)=O)NC(=O)[C@@H](NC(=O)[C@@H](NC(=O)[C@H](Cc1c[nH]cn1)NC(=O)[C@@H](N)CC(C)C)[C@@H](C)O)[C@@H](C)CC)C(=O)N[C@H](C(=O)N[C@@H](CCCCN)C(=O)N[C@@H](CO)C(=O)N[C@@H](CC(C)C)C(=O)N[C@@H](CC(C)C)C(=O)N[C@@H](CC(C)C)C(=O)O)[C@@H](C)CC", "note": "[Bisonin-1] (H-LHTINFIIKSLLL-OH)", "values": [{"measurement": "MIC (lowest MIC value obtained in the antimicrobial activity assays)", "result": 16000, "unit": "mM"}]}, {"smiles": "CC[C@H](C)[C@H](NC(=O)[C@H](CCCCN)NC(=O)[C@H](CC(C)C)NC(=O)[C@H](Cc1c[nH]cn1)NC(=O)[C@@H](N)CC(C)C)C(=O)N[C@@H](CC(C)C)C(=O)N[C@@H](CCCCN)C(=O)N[C@H](C(=O)N[C@H](C(=O)N[C@@H](CCCNC(=N)N)C(=O)N[C@@H](CC(C)C)C(=O)N[C@@H](CC(C)C)C(=O)O)[C@@H](C)CC)[C@@H](C)CC", "note": "[Elephasin-1] (H-LHLKILKIIRLL-OH)", "values": [{"measurement": "MIC (lowest MIC value obtained in the antimicrobial activity assays)", "result": 4000, "unit": "mM"}]}, {"smiles": "CC[C@H](C)[C@H](NC(=O)[C@@H](NC(=O)[C@H](Cc1c[nH]c2ccccc12)NC(=O)[C@H](CCCCN)NC(=O)[C@@H](N)CCCCN)C(C)C)C(=O)N[C@@H](CCCCN)C(=O)N[C@@H](CO)C(=O)N[C@H](C(=O)N[C@H](C(=O)N[C@@H](Cc1ccccc1)C(=O)N[C@@H](Cc1ccccc1)C(=O)N[C@@H](CCCCN)C(=O)O)C(C)C)C(C)C", "note": "[Hesperelin-2] (H-KKWVIKSVVFFK-OH)", "values": [{"measurement": "MIC (lowest MIC value obtained in the antimicrobial activity assays)", "result": 8000, "unit": "mM"}]}, {"smiles": "CC[C@H](C)[C@H](NC(=O)[C@H](CCCCN)NC(=O)[C@H](CO)NC(=O)[C@H](CC(N)=O)NC(=O)[C@H](Cc1ccccc1)NC(=O)[C@H](Cc1c[nH]cn1)NC(=O)[C@H](Cc1ccccc1)NC(=O)[C@@H](N)Cc1c[nH]c2ccccc12)C(=O)N[C@@H](CC(C)C)C(=O)N[C@@H](CC(C)C)C(=O)N[C@@H](CC(C)C)C(=O)N[C@H](C(=O)NCC(=O)N[C@@H](CC(C)C)C(=O)O)[C@@H](C)O", "note": "[Mylodonin-1] (H-WFHFNSKILLLTGL-OH)", "values": [{"measurement": "MIC (lowest MIC value obtained in the antimicrobial activity assays)", "result": 8000, "unit": "mM"}]}, {"smiles": "CC[C@H](C)[C@H](NC(=O)[C@H](CCCNC(=N)N)NC(=O)[C@H](Cc1c[nH]cn1)NC(=O)[C@H](CCCCN)NC(=O)[C@@H](NC(=O)CNC(=O)[C@H](CCCNC(=N)N)NC(=O)[C@H](C)NC(=O)[C@H](CCCCN)NC(=O)[C@@H](NC(=O)[C@H](C)NC(=O)[C@@H]1CCCN1C(=O)[C@H](CC(C)C)NC(=O)[C@H](CCC(N)=O)NC(=O)[C@H](CO)NC(=O)[C@H](Cc1ccccc1)NC(=O)[C@H](CC(C)C)NC(=O)[C@H](CC(C)C)NC(=O)[C@@H](NC(=O)[C@@H](N)CS)C(C)C)C(C)C)[C@@H](C)O)C(=O)N[C@@H](CCCCN)C(=O)N[C@@H](Cc1c[nH]c2ccccc12)C(=O)N[C@@H](CC(N)=O)C(=O)N[C@@H](CCCNC(=N)N)C(=O)N[C@@H](CCCCN)C(=O)O", "note": "[Equusin-4] (H-CVLLFSQLPAVKARGTKHRIKWNRK-OH)", "values": [{"measurement": "MIC (lowest MIC value obtained in the antimicrobial activity assays)", "result": 16000, "unit": "mM"}]}, {"smiles": "CC[C@H](C)[C@H](NC(=O)[C@H](CC(C)C)NC(=O)[C@H](Cc1c[nH]cn1)NC(=O)[C@@H](NC(=O)[C@H](CC(C)C)NC(=O)[C@H](CC(C)C)NC(=O)[C@H](Cc1c[nH]cn1)NC(=O)CN)[C@@H](C)CC)C(=O)NCC(=O)N[C@@H](CCCCN)C(=O)N[C@@H](C)C(=O)N[C@H](C(=O)N[C@@H](CC(C)C)C(=O)N[C@@H](C)C(=O)N[C@@H](CC(C)C)C(=O)O)[C@@H](C)O", "note": "[Arctoterin-1] (H-GHLLIHLIGKATLAL-OH)", "values": [{"measurement": "MIC (lowest MIC value obtained in the antimicrobial activity assays)", "result": 64000, "unit": "mM"}]}, {"smiles": "CC[C@H](C)[C@H](NC(=O)[C@H](CCCCN)NC(=O)[C@H](CC(C)C)NC(=O)[C@@H](NC(=O)[C@@H](N)CCCCN)[C@@H](C)O)C(=O)N[C@H](C(=O)N[C@@H](CCCNC(=N)N)C(=O)N[C@@H](CC(C)C)C(=O)N[C@@H](CC(C)C)C(=O)N[C@@H](Cc1ccccc1)C(=O)O)[C@@H](C)CC", "note": "[Mammuthusin-3] (H-KTLKIIRLLF-OH)", "values": [{"measurement": "MIC (lowest MIC value obtained in the antimicrobial activity assays)", "result": 16000, "unit": "mM"}]}, {"smiles": "CC[C@H](C)[C@H](NC(=O)[C@H](CCCCN)NC(=O)[C@@H](NC(=O)[C@H](Cc1c[nH]c2ccccc12)NC(=O)[C@H](CCCCN)NC(=O)[C@@H](N)CCCCN)[C@@H](C)O)C(=O)N[C@@H](Cc1ccc(O)cc1)C(=O)N[C@@H](CO)C(=O)N1CCC[C@H]1C(=O)N[C@@H](CC(C)C)C(=O)N[C@@H](CO)C(=O)N[C@@H](CC(C)C)C(=O)O", "note": "[Smilodin-1] (H-KKWTKIYSPLSL-OH)", "values": [{"measurement": "MIC (lowest MIC value obtained in the antimicrobial activity assays)", "result": 64000, "unit": "mM"}]}, {"smiles": "CC[C@H](C)[C@H](NC(=O)[C@H](CC(C)C)NC(=O)[C@@H](NC(=O)[C@H](CCCCN)NC(=O)[C@H](Cc1c[nH]c2ccccc12)NC(=O)[C@@H](NC(=O)[C@H](CCCCN)NC(=O)[C@H](CC(=O)O)NC(=O)[C@@H](NC(=O)[C@H](CC(C)C)NC(=O)[C@H](Cc1ccccc1)NC(=O)[C@H](C)NC(=O)CNC(=O)[C@@H](NC(=O)[C@@H](N)CCCCN)C(C)C)C(C)C)C(C)C)[C@@H](C)O)C(=O)O", "note": "[Anomalopterin-2] (H-KVGAFLVDKVWKTLI-OH)", "values": [{"measurement": "MIC (lowest MIC value obtained in the antimicrobial activity assays)", "result": 32000, "unit": "mM"}]}, {"smiles": "CC[C@H](C)[C@H](NC(=O)[C@H](Cc1ccc(O)cc1)NC(=O)[C@H](C)NC(=O)[C@@H](N)CCCNC(=N)N)C(=O)N[C@@H](CS)C(=O)N[C@@H](CCCNC(=N)N)C(=O)N[C@@H](CCCCN)C(=O)N[C@@H](CCCCN)C(=O)N[C@@H](Cc1ccccc1)C(=O)N[C@@H](CC(C)C)C(=O)N[C@@H](CO)C(=O)N[C@@H](CC(C)C)C(=O)N[C@@H](CCCNC(=N)N)C(=O)N[C@@H](CCCCN)C(=O)N[C@@H](C)C(=O)N[C@@H](CO)C(=O)N[C@H](C(=O)N[C@@H](CCCCN)C(=O)N[C@@H](CC(C)C)C(=O)N[C@@H](CCC(N)=O)C(=O)N[C@@H](CO)C(=O)N[C@@H](CC(C)C)C(=O)N[C@H](C(=O)N[C@@H](CCCNC(=N)N)C(=O)N[C@@H](CCSC)C(=O)N[C@@H](CCCCN)C(=O)O)C(C)C)[C@@H](C)CC", "note": "[Equusin-2] (H-RAYICRKKFLSLRKASIKLQSLVRMK-OH)", "values": [{"measurement": "MIC (lowest MIC value obtained in the antimicrobial activity assays)", "result": 8000, "unit": "mM"}]}, {"smiles": "CC[C@H](C)[C@H](N)C(=O)N[C@H](C(=O)NCC(=O)N[C@@H](CC(N)=O)C(=O)N[C@H](C(=O)N[C@@H](Cc1ccccc1)C(=O)NCC(=O)N[C@@H](Cc1ccccc1)C(=O)N[C@@H](CCCCN)C(=O)N[C@@H](C)C(=O)N[C@@H](CC(C)C)C(=O)N[C@@H](CCCNC(=N)N)C(=O)N[C@@H](C)C(=O)N[C@@H](CC(C)C)C(=O)N[C@@H](CCCNC(=N)N)C(=O)N[C@@H](CC(C)C)C(=O)O)C(C)C)C(C)C", "note": "[Hesperelin-4] (H-IVGNVFGFKALRALRL-OH)", "values": [{"measurement": "MIC (lowest MIC value obtained in the antimicrobial activity assays)", "result": 64000, "unit": "mM"}]}, {"smiles": "CC[C@H](C)[C@H](NC(=O)[C@@H](NC(=O)[C@H](CCSC)NC(=O)[C@@H](N)Cc1c[nH]c2ccccc12)[C@@H](C)O)C(=O)N[C@@H](Cc1c[nH]cn1)C(=O)N[C@@H](C)C(=O)N[C@@H](CC(C)C)C(=O)N[C@@H](CCCCN)C(=O)N[C@@H](CC(C)C)C(=O)N[C@@H](CO)C(=O)N[C@@H](CC(C)C)C(=O)N[C@@H](CO)C(=O)N[C@@H](Cc1ccccc1)C(=O)N[C@@H](CCCCN)C(=O)N[C@@H](CC(C)C)C(=O)O", "note": "[Mammutin-1] (H-WMTIHALKLSLSFKL-OH)", "values": [{"measurement": "MIC (lowest MIC value obtained in the antimicrobial activity assays)", "result": 2000, "unit": "mM"}]}, {"smiles": "CC[C@H](C)[C@H](NC(=O)[C@H](CCCCN)NC(=O)[C@@H](N)CCCNC(=N)N)C(=O)N[C@@H](CC(C)C)C(=O)NCC(=O)N[C@@H](CC(=O)O)C(=O)N[C@@H](CC(C)C)C(=O)N[C@@H](CCCCN)C(=O)N[C@@H](Cc1ccccc1)C(=O)N[C@@H](CC(C)C)C(=O)N[C@@H](CCC(=O)O)C(=O)N[C@@H](CO)C(=O)N[C@@H](CC(C)C)C(=O)N[C@@H](CCCCN)C(=O)N[C@H](C(=O)N[C@@H](Cc1ccc(O)cc1)C(=O)O)[C@@H](C)O", "note": "[Anomalopterin-1] (H-RKILGDLKFLESLKTY-OH)", "values": [{"measurement": "MIC (lowest MIC value obtained in the antimicrobial activity assays)", "result": 64000, "unit": "mM"}]}, {"smiles": "CC[C@H](C)[C@H](N)C(=O)N[C@@H](CC(C)C)C(=O)N[C@@H](CC(C)C)C(=O)N[C@H](C(=O)N[C@H](C(=O)N[C@@H](C)C(=O)N[C@H](C(=O)N[C@@H](C)C(=O)N[C@H](C(=O)N[C@@H](CCCCN)C(=O)N[C@@H](CC(C)C)C(=O)NCC(=O)N[C@@H](CC(C)C)C(=O)O)[C@@H](C)CC)[C@@H](C)CC)[C@@H](C)O)[C@@H](C)O", "note": "[Ararin-1] (H-ILLTTAIAIKLGL-OH)", "values": [{"measurement": "MIC (lowest MIC value obtained in the antimicrobial activity assays)", "result": 32000, "unit": "mM"}]}, {"smiles": "CC[C@H](C)[C@H](N)C(=O)N[C@@H](Cc1ccccc1)C(=O)N[C@@H](CC(C)C)C(=O)N[C@@H](Cc1c[nH]cn1)C(=O)N[C@@H](CC(C)C)C(=O)N[C@@H](CCCCN)C(=O)N[C@H](C(=O)N[C@@H](CC(C)C)C(=O)N[C@@H](CCCCN)C(=O)N[C@H](C(=O)N[C@H](C(=O)N[C@@H](Cc1c[nH]cn1)C(=O)N[C@@H](CC(C)C)C(=O)N[C@@H](CC(C)C)C(=O)O)[C@@H](C)CC)[C@@H](C)CC)[C@@H](C)O", "note": "[Mammuthusin-1] (H-IFLHLKTLKIIHLL-OH)", "values": [{"measurement": "MIC (lowest MIC value obtained in the antimicrobial activity assays)", "result": 4000, "unit": "mM"}]}, {"smiles": "CC[C@H](C)[C@H](N)C(=O)N[C@@H](CC(C)C)C(=O)N[C@H](C(=O)N[C@@H](CC(C)C)C(=O)N[C@@H](Cc1ccccc1)C(=O)N[C@H](C(=O)N[C@H](C(=O)N[C@@H](Cc1ccccc1)C(=O)N[C@@H](CCC(N)=O)C(=O)N[C@@H](CC(C)C)C(=O)N[C@@H](CCCCN)C(=O)N[C@H](C(=O)N[C@@H](CO)C(=O)N[C@@H](CCCCN)C(=O)N[C@@H](CC(C)C)C(=O)O)[C@@H](C)CC)[C@@H](C)CC)[C@@H](C)CC)[C@@H](C)O", "note": "[Paleopropin-2] (H-ILTLFIIFQLKISKL-OH)", "values": [{"measurement": "MIC (lowest MIC value obtained in the antimicrobial activity assays)", "result": 16000, "unit": "mM"}]}]}
